According to US20160339099A1, “SYNERGISTIC COMBINATION OF ANALGESIC DRUGS” (priority 2013, published 2016):

Tests used:
[1] = test system: Nav1.7 null mutant human; test: Human processing of phasic radiant heat (laser pulses) under naloxone; assay type: in vivo
Description: (§1) A Nav1.7 loss of function pain-free […] ([…]) was tested under baseline, saline, and naloxone (6 mg) bolus and 0.1 mg/minute infusion treatment. The forearm was stimulated with radiant heat (CO2 lasers).
Laser pulses of the same energy (fluency 0.6 j/mm^2) were given to the forearm. The energy used typically evokes a sensation of sharp pinprick pain in healthy volunteers. […] However, naloxone enhanced the detection rate of laser pulses to 80%. ML felt 37.5% of the detected stimuli as pinprick, while the other sensations were described as a slow heat, or warmth. Ratings were low (mean 6.1, range 0.5-15) in a perceived intensity scale ranging from 0-100.
(§2) We evaluated the probability of detecting 9-ms radiant heat pulses in a Nav1.7 null mutant human patient and in three age-matched, healthy human controls. Radiant heat was used to selectively stimulate intra-epidermal free-nerve endings, without touch. The results are depicted in FIG. 11A.

[2] = test system: Nav1.7 loss of function pain-free; test: Tactile sensitivity under naloxone; assay type: in vivo, human; details: baseline, saline and naloxone conditions
[3] = test system: healthy human controls; test: Radiant heat stimuli under naloxone in healthy controls; assay type: in vivo; details: healthy patients
Description: as §2
(§3) Tonic radiant heat was administered over 25 seconds, while the participants rated online the intensity of the heat on a visual analogue scale. The results are depicted in FIG. 11B.

[4] = test system: Nav1.7 null mutant mice; test: Hargreaves test after naloxone in Nav1.7 null mutant mice; assay type: in vivo; details: 2 mg/kg naloxone intraperitoneal; Nav1.7 Advill tissue-specific null mutant mice
Description: The analgesia found in Nav1.7 null mutant mice was measured with the Hargreaves apparatus, which is a measure of acute thermal pain (Minett et al. 2011, Minett et al. 2012).
(§4) Thermal nociceptive thresholds were measured using the paw-withdrawal latency according to the method described by Hargreaves et al. (1988), with minor modifications (Minett et al. 2011). Briefly, mice were left to acclimatise within an IITC Hargreaves stand for at least 1 hour. Three withdrawal responses were measured per animal. The mice were then left to resettle for at least 30 minutes before the drug treatment.
(§5) Mice received intraperitoneal injections of either 2 mg/kg naloxone or the equivalent volume of vehicle.

[5] = test system: Nav1.7 loss of function pain-free; test: Human radiant heat detection thresholds (warmth, pinprick) under naloxone; assay type: in vivo; details: naloxone 6 mg bolus and 0.1 mg/minute infusion
Description: as §1
Warmth threshold reflects activation of unmyelinated C-fibres, while pinprick threshold is mediated by small-myelinated A-delta fibres (LaMotte et al 1978). Detection thresholds were assessed by slowly increasing the temperature of the stimulus (rate 1 deg/sec), after a neutral baseline of variable length (5-10 seconds). The participant was asked to press a button, to stop the stimulus as soon it was detected as warm or pinprick. At baseline, ML perceived only 1 of the 6 stimulus ramps. All the stimuli were detected in the subsequent saline and naloxone sessions.

[6] = test system: Nav1.7 null mutant human; test: Human processing of tonic radiant heat under naloxone (ratings, EEG); assay type: in vivo
Description: as §1
We delivered tonic stimuli, at the constant temperature of 42, 45, and 48° C. for 20 sec. ML rated online fluctuations in perceived intensity on a visual analog scale. Identical stimuli were rated higher after administration of naloxone in comparison to both the baseline and saline conditions.
Furthermore, we measured the electroencephalogram (EEG) responses induced by tonic radiant heat stimulation: in other words, we looked at the effect of the nociceptive stimulation on brain rhythms.
as §3

[7] = test system: normal mice; test: Hargreaves test after naloxone in normal mice; assay type: in vivo; details: 2 mg/kg naloxone intraperitoneal
Description: as §4, §5

[8] = test system: murine acute thermal pain model; test: Hargreaves test, murine acute thermal pain model, intraplantar drug treatment; details: 1 μg of each drug, 20 μl intraplantar injection, compared with control mice
Description: (§6) Mice received 20 μl intraplantar injections of either; • 1 μg Phlotoxin-1, • 1 μg Buprenorphine, • combined 1 μg Phlotoxin-1 and 1 μg Buprenorphine • or vehicle.

[9] = target: T1, Nav1.7 (Homo sapiens, UniProt Q15858); details: Escoubas et al. 2006, Bosmans et al. 2005; cited from earlier work
T1 sequence (Q15858 whole entry): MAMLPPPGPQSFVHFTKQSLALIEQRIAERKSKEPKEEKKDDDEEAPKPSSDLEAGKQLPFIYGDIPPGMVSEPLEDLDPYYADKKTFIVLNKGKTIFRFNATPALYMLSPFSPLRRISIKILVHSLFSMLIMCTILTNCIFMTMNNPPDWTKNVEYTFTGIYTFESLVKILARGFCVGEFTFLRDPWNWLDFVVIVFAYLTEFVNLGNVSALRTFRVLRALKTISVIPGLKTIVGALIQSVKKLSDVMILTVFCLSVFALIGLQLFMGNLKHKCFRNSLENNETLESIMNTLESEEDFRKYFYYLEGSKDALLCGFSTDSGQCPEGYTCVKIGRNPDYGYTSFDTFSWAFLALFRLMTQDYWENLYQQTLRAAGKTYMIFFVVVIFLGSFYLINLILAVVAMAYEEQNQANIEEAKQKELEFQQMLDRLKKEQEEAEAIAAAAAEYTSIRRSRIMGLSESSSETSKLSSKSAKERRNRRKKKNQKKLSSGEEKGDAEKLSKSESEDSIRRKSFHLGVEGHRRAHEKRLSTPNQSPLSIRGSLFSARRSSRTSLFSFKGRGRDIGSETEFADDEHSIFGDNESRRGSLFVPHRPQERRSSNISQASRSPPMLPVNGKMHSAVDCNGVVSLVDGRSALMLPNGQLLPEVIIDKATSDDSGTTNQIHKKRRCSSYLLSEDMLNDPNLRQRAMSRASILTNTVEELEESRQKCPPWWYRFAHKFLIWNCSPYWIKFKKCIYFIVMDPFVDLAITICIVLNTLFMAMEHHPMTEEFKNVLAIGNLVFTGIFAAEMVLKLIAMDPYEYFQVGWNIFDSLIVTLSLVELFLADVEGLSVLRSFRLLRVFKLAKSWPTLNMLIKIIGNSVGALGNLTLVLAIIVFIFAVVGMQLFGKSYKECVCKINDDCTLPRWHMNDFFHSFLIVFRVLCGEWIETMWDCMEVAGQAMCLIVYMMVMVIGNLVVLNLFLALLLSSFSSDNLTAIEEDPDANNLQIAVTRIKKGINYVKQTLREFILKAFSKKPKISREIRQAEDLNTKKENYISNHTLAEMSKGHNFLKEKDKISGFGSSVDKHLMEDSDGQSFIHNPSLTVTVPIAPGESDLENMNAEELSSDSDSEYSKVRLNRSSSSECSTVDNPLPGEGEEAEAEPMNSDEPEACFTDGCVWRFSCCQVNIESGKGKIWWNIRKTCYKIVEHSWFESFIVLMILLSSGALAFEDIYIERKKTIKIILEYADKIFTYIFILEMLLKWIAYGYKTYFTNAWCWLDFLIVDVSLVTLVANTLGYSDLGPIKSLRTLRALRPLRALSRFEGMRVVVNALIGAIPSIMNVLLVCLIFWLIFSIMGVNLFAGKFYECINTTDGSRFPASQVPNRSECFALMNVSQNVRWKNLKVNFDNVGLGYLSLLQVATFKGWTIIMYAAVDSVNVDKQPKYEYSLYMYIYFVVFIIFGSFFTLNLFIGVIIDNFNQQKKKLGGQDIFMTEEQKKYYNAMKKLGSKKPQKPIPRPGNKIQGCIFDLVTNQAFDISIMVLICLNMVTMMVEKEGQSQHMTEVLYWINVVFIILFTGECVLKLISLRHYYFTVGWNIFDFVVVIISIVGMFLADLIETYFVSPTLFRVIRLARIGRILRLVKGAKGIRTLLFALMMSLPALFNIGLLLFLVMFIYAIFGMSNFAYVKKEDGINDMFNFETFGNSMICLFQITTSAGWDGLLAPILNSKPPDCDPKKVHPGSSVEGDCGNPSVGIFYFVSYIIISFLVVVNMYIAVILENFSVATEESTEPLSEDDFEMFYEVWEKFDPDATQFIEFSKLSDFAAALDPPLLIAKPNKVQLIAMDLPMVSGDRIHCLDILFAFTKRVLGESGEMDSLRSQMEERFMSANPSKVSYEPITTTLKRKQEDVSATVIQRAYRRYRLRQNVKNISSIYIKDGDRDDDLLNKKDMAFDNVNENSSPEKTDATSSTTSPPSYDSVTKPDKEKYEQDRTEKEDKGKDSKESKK

[10] = test system: inflammatory hyperalgesia in a murine thermal pain model; test: Complete Freund's Adjuvant thermal hyperalgesia, Hargreaves test (Example 2); assay type: in vivo, mice; details: intraplantar 1 microgram each; three days post CFA
Description: Baseline thermal thresholds were recorded for each animal before 20 μl Complete Freund's Adjuvant (Sigma) was injected subcutaneously into the plantar aspect of a hind paw using a Hamilton syringe and 30 G needle. Three days post Complete Freund's Adjuvant injections thermal threshold were measured before to drug treatment.
as §6

[11] = target: T1, Nav1.7; test: Whole cell voltage clamp of Nav1.7 activity in transfected HEK293 cell line; assay type: cell-based; set-up: expressed in transfected cells; host or cells: HEK293; details: 0.25 μM, HEK293 cell line transfected with human Nav1.7
Description: Specifically, HEK293 (ATCC) cells are transfected with Nav1.7 or other sodium channel cDNA constructs in a vector co-expressing a fluorescent marker protein using lipofectamine 2000 or other transfection method and plated onto poly-d-lysine coated coverslips. All recordings are done 24-72 hours after transfection
Whole-cell voltage clamp recordings are performed using an Axopatch 200 B amplifier at room temperature using standard techniques. Extracellular solution comprised (mM) NaCl 145, KCl 4, CaCl2 1.8, MgCl2 1, HEPES 10, (pH 7.35 with NaOH); intracellular (mM) CsCl 150, EGTA 10, HEPES 10, (pH 7.35 with CsOH). […] Tau of inactivation was measured by fitting a standard exponential function to the decaying current and persistent current was determined by measuring the current 20 ms after the start of the voltage step and expressing it as a percentage of the transient current in the same step. To assess voltage dependence of activation current-voltage families were obtained and peak sodium currents measured at each voltage. Channel conductance was calculated using the formula GNa=I/(V−Vrev) where GNa is sodium conductance, I is peak current, V is the voltage step and Vrev is the measured reversal potential which was determined for each cell by fitting a straight line through the linear portion of the current-voltage relationship. […]

[12] = target: T1, Nav1.7; details: Yang et al. 2013; read-out: IC50 for inhibition of Nav1.7; cited from earlier work
[13] = scale ranging from 0-100, naloxone

Compound: C=CCN1CC[C@]23c4c5ccc(O)c4O[C@H]2C(=O)CC[C@@]3(O)[C@H]1C5 [naloxone]
- probability of detecting 9-ms radiant heat pulses ([1]; bolus of 6 mg naloxone followed by infusion at 0.1 mg/minute, Nav1.7 null mutant): 80%
- detection rate of laser pulses ([1]; fluency 0.6 j/mm2, forearm, naloxone, none perceived at baseline and saline): 80%
- detected stimuli felt as pinprick ([1]; naloxone): 37.5%
- perceived intensity rating of laser pulses, mean [1, 13]: 6.1
- perceived intensity rating of laser pulses, range [1, 13]: 0.5-15
- tactile sensitivity [2]: remained unchanged
- sensitisation to noxious stimuli (phasic and tonic radiant heat) [3]: no effect
- effect on the analgesia of Nav1.7 null mutant mice, Hargreaves test [4]: partially reverses
- trials in which pinprick stimuli were reported "surprisingly uncomfortable" [5]: 66%
- reduction of pinprick detection thresholds relative to saline ([5]; forearm radiant heat): 1.7 °C
- reduction of warmth detection thresholds relative to saline ([5]; forearm radiant heat): 7 °C
- perceived intensity rating of tonic stimuli (visual analog scale) versus baseline and saline ([6]; 42, 45 and 48° C. for 20 sec, naloxone): rated higher
- EEG alpha and beta power during tonic radiant heat ([6]; naloxone): reduced
- EEG low and high gamma induced oscillations relative to baseline and saline ([6]; naloxone): enhancement
- intensity ratings of tonic radiant heat on visual analogue scale (Example 14) ([6]; tonic radiant heat over 25 seconds, Nav1.7 null human): strongly increased
- effect on pain thresholds, Hargreaves test [7]: does not alter pain thresholds

Compound: Phlotoxin-1
- analgesia in the Hargreaves test (paw-withdrawal latency) [8]: no analgesia
- selective affinity for Nav1.7 compared to other expressed sodium channels [9]: sub-micromolar
- effect on inflammatory (CFA) thermal hyperalgesia, Hargreaves test [10]: much lesser effects
- inhibition of functional Nav1.7 voltage-gated channel activity [11]: completely inhibits

Compound: μ-SLPTX-Ssm6a
- IC50 [12]: ~25 nM
